The values that follow come from patent publication US9193689B2, “3-aryl-5-substituted-isoquinolin-1-one compounds and their therapeutic use” (INSTITUTE OF CANCER RESEARCH: ROYAL CANCER HOSPITAL (THE), priority 2012, dated 2015).

Like-named read-outs stand apart in the source and are kept apart here.

The target of one assay is TNKS1 (Homo sapiens, UniProt O95271). Nature of the assay: TNKS1/PARP Biochemical Assay (TNKS1).
A further assay concerns DLD1 cells. Nature of the assay: Long-Term Clonogenic Assay (DLD1 cells). The assay is classed as cell-based. How it is done: Clonogenic Inhibition in DLD1 or HT55 Cells
In order to determine the efficacy of chronic dosing of putative TNKS inhibitors, long term clonogenic or ‘colony formation’ assays were carried out. This included the sparse seeding of cells in a 6-well dish followed by continuous dosing of cells over 12-14 days (depending on relative cell growth). Appropriate cell lines (DLD1 or HT55) were seeded at 500 cells/well in a 6-well dish in DMEM supplemented with FBS. […] Dosages were carried out in triplicate. Cell media containing compound or DMSO only was replenished every 48 hours. Termination of the assay included the fixation of cells with trichlororacetic acid (1 mL, 10% (v/v), Sigma Aldrich, cat. no. T6399) and incubation for 16 hours at 4° C. Fixed cells were then washed with water, allowed to dry and stained with sulforhodamine B solution (sulforhodamine B 0.05% (w/v), Sigma Aldrich cat. no. S1402, acetic acid 1% (v/v), Fisher Scientific, cat. no. A/0400/PB17)) for 12 hours at room temperature. The stain was then removed and the cells washed copiously with aqueous acetic acid (1% v/v) and allowed to dry.
The data was normalised to the DMSO control and was expressed as surviving fraction as a function of inhibitor dose.

Assay [1] deals with Wnt activity in DLD1-Wnt-Luc cells. In words: Wnt-Luciferase Reporter Assay.
Setting [2] is: read-out: Wnt IC50, DLD1-Wnt-Luc cells.

As to `Cc1cccc2c(=O)[nH]c(-c3ccc(CN4CCNCC4C)cc3)cc12` (single isomer, unassigned) [IQ-051-3], the IC50 on TNKS1 was less than 50 nM. In addition, the “Clonogenic SF50 (DLD1)” value with DLD1 cells was less than 2 µM.

As to `Cc1cccc2c(=O)[nH]c(-c3ccc(CN4CCNC(C)C4)cc3)cc12` (single isomer, unassigned) [IQ-084-1], the IC50 against TNKS1 was less than 50 nM. Besides, the “Clonogenic SF50 (DLD1)” value in the assay with DLD1 cells was less than 2 µM.

As to `Cc1cccc2c(=O)[nH]c(-c3ccc(CN4CCNC(C)C4)cc3)cc12` (single isomer, unassigned) [IQ-084-2], the IC50 on TNKS1 is less than 50 nM. In addition, the “Clonogenic SF50 (DLD1)” value in the assay with DLD1 cells is less than 2 µM.

With `Cc1cccc2c(=O)[nH]c(-c3ccc(N(C)C)cc3)cc12` [IQ-001], the IC50 against TNKS1 is less than 20 nM. Besides, the “Clonogenic SF50 (DLD1)” value in the assay on DLD1 cells is less than 2 µM.

On TNKS1, `CC(=O)N1CCN(c2ccc(-c3cc4c(C)cccc4c(=O)[nH]3)cn2)CC1` [IQ-005] gave an IC50 of less than 20 nM. In the assay with DLD1 cells, the “Clonogenic SF50 (DLD1)” value was less than 2 µM.

At TNKS1, `CN(C)C1CCN(c2ccc(-c3cc4c(Cl)cccc4c(=O)[nH]3)cn2)C1` (stereo not drawn) [IQ-009] gave an IC50 of less than 500 nM. Besides, in the assay on DLD1 cells, the “Clonogenic SF50 (DLD1)” value was less than 2 µM.

`CC(=O)N1CCN(c2ccc(-c3cc4c(C)cccc4c(=O)[nH]3)cc2)CC1` [IQ-017]: the IC50 on TNKS1 is less than 20 nM. The “Clonogenic SF50 (DLD1)” value in the assay with DLD1 cells was less than 2 µM.

With `CN(C)CCN1CCN(c2ccc(-c3cc4c(Cl)cccc4c(=O)[nH]3)cn2)CC1` [IQ-019], on TNKS1, the IC50 is less than 50 nM. Moreover, the “Clonogenic SF50 (DLD1)” value with DLD1 cells is less than 2 µM.

In turn, `Cc1cccc2c(=O)[nH]c(-c3cnc(N4CCN(C)CC4)c(F)c3)cc12` [IQ-021] registered an IC50 against TNKS1 of less than 50 nM. Besides, the “Clonogenic SF50 (DLD1)” value in the assay on DLD1 cells is less than 2 µM.

Regarding `Cc1cccc2c(=O)[nH]c(-c3cnc(N4CCNCC4)c(F)c3)cc12` [IQ-023], at TNKS1, the IC50 was less than 50 nM. For the same compound, the “Clonogenic SF50 (DLD1)” value in the assay on DLD1 cells is less than 2 µM.

`CN1CCN(Cc2ccc(-c3cc4c(Cl)cccc4c(=O)[nH]3)cc2)CC1` [IQ-043] yielded an IC50 against TNKS1 of less than 500 nM. Also, the “Clonogenic SF50 (DLD1)” value in the assay on DLD1 cells was less than 2 µM.

On TNKS1, `Cc1cccc2c(=O)[nH]c(-c3ccc(C(C)N4CCN(C)CC4)cc3)cc12` (stereo not drawn) [IQ-048] returned an IC50 of less than 20 nM. Also, the “Clonogenic SF50 (DLD1)” value with DLD1 cells is less than 2 µM.

For the compound `Cc1cccc2c(=O)[nH]c(-c3ccc(CN4CCN(C)C(=O)C4)cc3)cc12` [IQ-054], the IC50 against TNKS1 is less than 20 nM. The “Clonogenic SF50 (DLD1)” value in the assay on DLD1 cells is less than 2 µM.

As to `Cc1cccc2c(=O)[nH]c(-c3ccc(CN4CCN(C)CC4)nc3)cc12.O=CO` [IQ-057], at TNKS1, the IC50 was less than 50 nM. Moreover, the “Clonogenic SF50 (DLD1)” value with DLD1 cells is less than 2 µM.

For the compound `Cc1cccc2c(=O)[nH]c(-c3ccc(CN4CCN(C(=O)NC(C)(C)C)CC4)cc3)cc12` [IQ-068, 4-[4-(5-methyl-1-oxo-1,2-dihydro-isoquinolin-3-yl)-benzyl]-piperazine-1-carboxylic acid tert-butylamide], the IC50 at TNKS1 is less than 50 nM. The “Clonogenic SF50 (DLD1)” value in the assay with DLD1 cells was less than 2 µM.

Regarding `Cc1cccc2c(=O)[nH]c(-c3ccc(CN4CCC(O)CC4)cc3)cc12` [IQ-074, 3-[4-(4-Hydroxy-piperidin-1-ylmethyl)-phenyl]-5-methyl-2H-isoquinolin-1-one], on TNKS1, the IC50 was less than 50 nM. Further, the “Clonogenic SF50 (DLD1)” value in the assay with DLD1 cells was less than 2 µM.

With `Cc1cccc2c(=O)[nH]c(-c3ccc(CN4C[C@@H]5C[C@H]4CN5)cc3)cc12` [IQ-086], the IC50 on TNKS1 was less than 20 nM. Further, the “Clonogenic SF50 (DLD1)” value in the assay on DLD1 cells is less than 2 µM.

`Cc1cccc2c(=O)[nH]c(-c3ccc(C(=O)N4CCC(N(C)C)CC4)cc3)cc12` [IQ-106] returned an IC50 at TNKS1 of less than 50 nM. The “Clonogenic SF50 (DLD1)” value in the assay on DLD1 cells was less than 2 µM.

In the case of `Cc1cccc2c(=O)[nH]c(-c3ccc(S(=O)(=O)N4CCN(C)CC4)cc3)cc12` [IQ-121], the IC50 on TNKS1 is less than 50 nM. Besides, the “Clonogenic SF50 (DLD1)” value with DLD1 cells was less than 2 µM.

`CN(C)CCOc1ccc(-c2cc3c(F)cccc3c(=O)[nH]2)cc1` [IQ-129]: the IC50 was less than 50 nM on TNKS1 and less than 5000 nM in assay [1] (setting [2]). The “Clonogenic SF50 (DLD1)” value in the assay on DLD1 cells was less than 2 µM.

On to `CN(C)CCOc1ccc(-c2cc3c(Br)cccc3c(=O)[nH]2)cc1` [IQ-132], for which the IC50 is less than 500 nM against TNKS1 and less than 5000 nM in assay [1] (setting [2]).

On to `O=c1[nH]c(-c2ccc(OCCN3CCCC3)cc2)cc2c(Cl)cccc12` [IQ-135], for which the IC50 against TNKS1 is less than 500 nM; in assay [1] (setting [2]), less than 5000 nM.

Take `O=c1[nH]c(-c2ccc(CN3CCNCC3)cc2)cc2c(Br)cccc12` [IQ-150]: the values for the IC50 (against TNKS1; in assay [1] (setting [2])) were less than 500 nM and less than 5000 nM, respectively.

Consider `Cc1cccc2c(=O)[nH]c(-c3cnc(N4CCN(C(=O)C5CC5)CC4)nc3)cc12` [IQ-157, 3-[2-(4-Cyclopropanecarbonyl-piperazin-1-yl)-pyrimidin-5-yl]-5-methyl-2H-isoquinolin-1-one], for which the values for the IC50 (against TNKS1; in assay [1] (read-out: Wnt IC50)) were 51 nM and 41 nM, respectively.

Take `Cc1cccc2c(=O)[nH]c(-c3ccc(CN4CCC5(CCNC5)C4)nc3)cc12` (stereo not drawn) [IQ-160]: the IC50 against TNKS1 was less than 50 nM; in assay [1] (setting [2]), less than 5000 nM.

Take `Cc1cccc2c(=O)[nH]c(-c3ccc(C(=O)N4CCOCC4)cc3F)cc12` [IQ-163]: the IC50 is less than 500 nM against TNKS1 and less than 5000 nM in assay [1] (setting [2]).

Consider `Cc1cccc2c(=O)[nH]c(-c3ccc(C(=O)N4CCN(C)CC4)cc3F)cc12` [IQ-164], for which the results for the IC50 (against TNKS1; in assay [1] (setting [2])) were less than 500 nM and less than 5000 nM, respectively.

Consider `Cc1cccc2c(=O)[nH]c(-c3ccc(C(=O)N4CCN(CC5CC5)CC4)cc3F)cc12` [IQ-165], for which the IC50 against TNKS1 was less than 500 nM; in assay [1] (setting [2]) it was less than 5000 nM.

In turn, `Cc1cc(F)cc2c(=O)[nH]c(-c3ccc(C(=O)N4CCN(C)CC4)cc3)cc12.O=CO` [IQ-190] displayed an IC50 against TNKS1 of less than 20 nM. For the same compound, the “Clonogenic SF50 (DLD1)” value in the assay on DLD1 cells is less than 2 µM.

As to `Cc1cccc2c(=O)[nH]c(-c3ccc(C(=O)N(CCO)CCO)cc3)cc12` [IQ-191, N,N-Bis-(2-hydroxy-ethyl)-4-(5-methyl-1-oxo-1,2-dihydro-isoquinolin-3-yl)-benzamide], the IC50 on TNKS1 is less than 20 nM; in assay [1] (setting [2]), less than 5000 nM.

With `Cc1cc(F)cc2c(=O)[nH]c(-c3ccc(C(C)C(=O)N4CC(O)C4)cc3)cc12` (stereo not drawn) [IQ-216], the IC50 against TNKS1 was less than 50 nM; in assay [1] (setting [2]), less than 5000 nM.

In the case of `Cc1cccc2c(=O)[nH]c(-c3ccc(C(C)(C)C(=O)N4CC(O)C4)cc3)cc12` [IQ-217], the IC50 at TNKS1 was less than 50 nM; in assay [1] (setting [2]) it was less than 5000 nM.

`Cc1cccc2c(=O)[nH]c(-c3ccc(C(=O)N4CCN(C)CC4)nc3)cc12` [IQ-220]: the IC50 is 26 nM on TNKS1 and 274 nM in assay [1] (read-out: Wnt IC50).

`Cc1ccc(F)c2c(=O)[nH]c(-c3ccc(C(=O)N4CCN(C)CC4)nc3)cc12` [IQ-221]: the IC50 on TNKS1 is less than 500 nM; in assay [1] (setting [2]), less than 5000 nM.

For `Cc1cc(F)cc2c(=O)[nH]c(-c3ccc(C(=O)N4CCN(C)CC4)nc3)cc12` [IQ-222], the IC50 at TNKS1 is 16 nM; in assay [1] (read-out: Wnt IC50), 174 nM.

On to `Cc1cccc2c(=O)[nH]c(-c3ccc(C(=O)N4CCN(CC5CC5)CC4)cn3)cc12` [IQ-223, 3-[5-(4-Cyclopropylmethyl-piperazine-1-carbonyl)-pyridin-2-yl]-5-methyl-2H-isoquinolin-1-one], for which the IC50 at TNKS1 is 76 nM; in assay [1] (read-out: Wnt IC50), 1340 nM; in assay [1] (setting [2]), less than 5000 nM.

For `Cc1cccc2c(=O)[nH]c(-c3cnc(C(=O)N4CCN(C)CC4)nc3)cc12` [IQ-224], the IC50 against TNKS1 is less than 50 nM; in assay [1] (setting [2]) it was less than 5000 nM.

For `Cc1ccc(F)c2c(=O)[nH]c(-c3cnc(C(=O)N4CCN(C)CC4)nc3)cc12` [IQ-225], the IC50 was less than 500 nM at TNKS1 and less than 5000 nM in assay [1] (setting [2]).

Regarding `C#Cc1cccc2c(=O)[nH]c(-c3ccc(CN4CCNCC4)cc3)cc12` [IQ-230, 5-Ethynyl-3-(4-piperazin-1-ylmethylphenyl)-2H-isoquinolin-1-one], the IC50 against TNKS1 was less than 500 nM; in assay [1] (setting [2]), less than 5000 nM.

In the case of `CN(C)CCOc1ccc(-c2cc3c(C#CCO)cccc3c(=O)[nH]2)cc1` [IQ-232], the values for the IC50 (against TNKS1; in assay [1] (setting [2])) were less than 500 nM and less than 5000 nM, respectively.

For `CN1CCN(c2ncc(-c3cc4ccccc4c(=O)[nH]3)cn2)CC1` [REF-1, reference compound], the IC50 at TNKS1 was found to be 33 nM; in assay [1] (read-out: Wnt IC50), 825 nM.

As to `CN1CCN(Cc2ccc(-c3cc4ccc(F)cc4c(=O)[nH]3)cc2)CC1` [REF-2, reference compound], the IC50 stood at 48 nM at TNKS1 and 1000 nM in assay [1] (read-out: Wnt IC50).

As for `CN1CCN(c2ccc(-c3cc4ccccc4c(=O)[nH]3)cn2)CC1` [REF-3, reference compound], the half-inhibitory concentration (IC50) at TNKS1 was found to be 24 nM; in assay [1] (read-out: Wnt IC50), 742 nM.

`CN(C)CCOc1ccc(-c2cc3ccccc3c(=O)[nH]2)cc1` [REF-5, reference compound]: the figures for the IC50 (against TNKS1; in assay [1] (read-out: Wnt IC50)) were 17 nM and more than 10000 nM, respectively.

On to `O=C(C1CC1)N1CCN(c2ncc(-c3cc4c(O)cccc4c(=O)[nH]3)cn2)CC1` [REF-6, reference compound], for which the results for the IC50 (against TNKS1; in assay [1] (read-out: Wnt IC50)) were 24 nM and 611 nM, respectively.

In the case of `CN1CCN(C(=O)c2ccc(-c3cc4c(O)cccc4c(=O)[nH]3)cn2)CC1` [REF-7, reference compound], the IC50 against TNKS1 is 42 nM; in assay [1] (read-out: Wnt IC50) it was more than 10000 nM.

Take `COc1ccc(-c2cc3c(C)cccc3c(=O)[nH]2)nc1` [REF-8, reference compound]: the IC50 is 39 nM on TNKS1 and 4320 nM in assay [1] (read-out: Wnt IC50).
